In data set [1] the test system is SGLT-1-mediated intestinal glucose absorption. In words: Glycemia in mice after oral glucose challenge. Type of data set: in vivo. As to conditions: plasma, mice challenged orally with 2.5 g/kg glucose + 250 μg/kg compound 4, 1 h. On the procedure: As such, it was argued that it might act as a functional antagonist of SGLT-1-mediated intestinal glucose absorption, and used for the control of hyperglycemia in type II diabetes. This possibility was tested in the following experiments.
In a first set of experiments mice were orally challenged with 2.5 g/kg of glucose with or without concomitant administration of compound 4 (250 μg/kg) and glycemia was measured after 1 h.

Data set [2] has as its system ovalbumin-treated C57B1/6 mice. In words: Ovalbumin mouse model of asthma. The data set is classed as in vivo. The text has this:
FIG. 8. Serum levels of IL-4, IL-5 and IL-10 in untreated mice or mice treated with ovalbumin+comp 4. Untr=Untreated mice; comp 4=Mice treated with comp 4 alone; OVA=Mice treated with ovalbumin alone; comp 4+OVA=Mice treated with comp 4 and ovalbumin.
FIG. 9. BALF levels of IL-4 and IL-5 in untreated mice or mice treated with ovalbumin+compound 4. Untr=Untreated mice; comp 4=Mice treated with comp 4 alone; OVA=Mice treated with ovalbumin alone; comp 4+OVA=Mice treated with comp 4 and ovalbumin.
Compound 4 was tested in a mouse model of asthma where glucose had already been shown therapeutic efficacy. For this purpose, 10 male C57B1/6 mice were immunized intraperitoneally with 100 μg of ovalbumin (grade V) suspended in 500 μg Al(OH)3. Another group of 10 animals was treated the same way and, in addition, also with compound 4 (25 μg/kg) administered orally. One week after the first immunization, the same treatments were repeated. Two weeks after the first immunization, the first group of animals was challenged for 25 min with an aerosol of 5% (wt/vol) ovalbumin every day, for 5 consecutive days, while the other group received aerosolized ovalbumin plus compound 4 (25 μg/kg).
A hallmark of inflammatory damage to the lung is the development of high-permeability edema, characterized by high protein content in the edema fluid. Indeed, in the lungs of ovalbumin-exposed mice the protein concentration in the BALF was markedly high (0.729 mg/ml), witnessing an important damage to the lungs of these animals. On the other hand, the protein concentration in the BALF of ovalbumin+4-treated animals was similar to that of untreated animals (0.394 mg/ml).
Eventually, also the cytokine levels in the sera and BALFs of ovalbumin- or ovalbumin+compound 4-treated animals were measured. The levels of the cytokines IL-5 and IL-4, which are pivotal in the pathogenesis of asthmatic disease, were elevated in both sera and BALF from ovalbumin-treated mice, but normal in ovalbumin+4-treated animals.

The next data set concerns HT29 cells. In words: LPS-induced IL-8 production by HT29 intestinal epithelial cells (ELISA). Type of data set: cell-based, human. The following applies: compounds 50 mg/L to 5 μg/L for 18 h, then LPS (Salmonella enterica abortus equi) 1 μg/ml 6 h. Here is the method: FIG. 2A. LPS-induced IL-8 production by HT29 cells in the absence or presence of the indicated concentrations of compound (c) 4, 5, 6, 7, 4′, 14.
The effect of the compounds on the release of IL-8 or KC was tested upon stimulation of intestinal epithelial cells (IEC) with LPS from Salmonella enterica abortus equi. The human IEC line HT29 was used for these experiments. Cells were cultured for 18 h in medium alone or in medium additioned with different concentrations of compounds 4, 5, 6, 7, 4′ and 14 (from 50 mg/L to 5 μg/L). Then, cells were stimulated for 6 h with LPS (1 μg/ml). […] Similar experiments were performed on a human pneumocyte type II cell line (A549) using compound 4 and LPS from Pseudomonas aeruginosa.
In general terms: In an ELISA, binding on a coated surface is turned into a signal by an enzyme label.

The nature of data set [3]: Stability of compound 4 towards pH variations by 1H-NMR. The data set is classed as physicochemical. As to conditions: D2O, room temperature, spectra at 10 min, 4.5 h and 24 h. On the procedure: Stability of compound 4 towards pH variations is evaluated through ^1H-NMR analysis. Two samples are prepared, one in acidic conditions and one in basic conditions; the first is prepared by dissolving 2.3 mg in 550 μl of D2O and adjusting to pH 1.2 through DCl addition, while the second is prepared by dissolving 3 mg of compound 4 in 550 μl of D2O and adjusting to pH 12.5 through NaOD addition. The two samples are kept at room temperature and ^1H-NMR spectra thereof are recorded at time 10 min, 4.5 h and 24 h.
FIG. 1. ^1H-NMR spectra of compound 4 at pH 12.5 and at pH 1.2.

The test system of the next data set is DSS-treated mice. Description: Chronic Crohn-like disease induced by 4 cycles of DSS 2% in mice. The data set is classed as in vivo. The following applies: chronic model. The source says: FIG. 6. Colon length in untreated mice or mice treated with DSS+comp 4. Untr=Untreated; DSS=Mice treated with DSS alone; DSS comp 4=Mice treated with DSS and comp 4;=Mice treated comp 4 alone.
FIG. 7. TNF-α content in the protein extract of the colon of untreated mice or mice treated with DSS+comp 4. Untr=Protein extract from colon of untreated mice; DSS=Protein extract from colon of mice treated with DSS alone; DSS comp 4=Protein extract from colon of mice treated with DSS+comp 4;=Protein extract from colon of mice treated with comp 4 alone.
Chronic Crohn-like disease was induced in mice by administration of DSS 2% for 4 cycles, with each cycle consisting in exposition to DSS 2% for 7 days, followed by 14 days of regular water. In mice that were administered also compound 4, last exposition of DSS was followed by p.o. administration of compound 4 at 25 μg/kg, 4 times/week for 3 weeks.
One hallmark of the chronic Crohn's disease model is the shortening of the colon.
Another parameter that was measured in this setting was the TNF-α content in the protein extract of the colon of mice. DSS 2% alone led to a dramatic increase of the TNF-α levels in the protein extract, while co-treatment with compound 4 led to normalization of these levels.

The test system of data set [4] is LPS/GalN-induced shock in FVB mice. In words: LPS/galactosamine-induced shock in mice. The data set is classed as in vivo. As to conditions: LPS 5 μg/mouse + GalN 40 mg/mouse i.p., compound 4 25 μg/kg (0.5 μg/mouse) p.o. Here is the method: FIG. 4. Protection afforded by comp 4 in LPS-induced shock in mice. Untr=untreated; LPSGalN=Mice treated with LPS/GalN alone; LPSGalN Comp 4=Mice treated with LPS/GalN+Comp 4=Mice treated with Comp 4 alone.
Compound 4 was tested in LPS/galactosamine (GalN)-induced shock in mice. LPS shock was induced in 2-months old FVB mice through intraperitoneal (i.p). injection of 5 μg LPS/mouse (LPS from Salmonella enterica abortus equi) and 40 mg/mouse GalN (LPS/GalN).

SMILES strings stand for the structures.

In the case of `CN(C)c1cccc2c(S(=O)(=O)NCC[C@H]3O[C@H](CO)[C@@H](O)[C@H](O)[C@H]3O)cccc12` [Compound 4, 5-(Dimethylamino)-N-[2′-(α-D-glucopyranosyl)ethyl]-1-naphthalenesulphonamide], the Glycemia levels in data set [1] amounted to 150 mg/dL. Further, in data set [2] (oral administration of compound 4 during aerosol ovalbumin challenge (data not shown)), the “Protection against ovalbumin inflammation” value was “protects the ovalbumin inflammation analogously to the aerosol challenge”. Also, in data set [2] (ovalbumin + compound 4), the “IL-4 levels in BALF” value is reported as “normal”, the “IL-4 levels in sera” value was “normal”, the “IL-5 levels in BALF” value is listed as “normal” and the “IL-5 levels in sera” value is “normal”. In addition, in data set [2] (ovalbumin + compound 4), the “IL-10 levels in sera” value is “greatly increased”. In data set [2] (ovalbumin + compound 4 (25 μg/kg)), the “protein concentration in the BALF” value came out at 0.394 mg/mL. The “eosinophils in BALF” value in data set [2] (ovalbumin + compound 4 (25 μg/kg; oral at immunization, aerosol at challenge)) turned out to be 127 cells/ml. Moreover, the “production of IL-8 induced by LPS” value in the data set with HT29 cells was “significantly inhibited”. The “Stability towards pH (degradation by 1H-NMR)” value in data set [3] (pH 1.2 (DCl)) is on record as “no degradation”. In data set [3] (pH 12.5 (NaOD)), the “Stability towards pH (degradation by 1H-NMR)” value is listed as “no degradation”. Also, the Intestinal transmembrane resistance in the data set on DSS-treated mice (4 cycles DSS 2% + compound 4 25 μg/kg p.o. 4 times/week for 3 weeks) was 47 Ω × cm^2. Besides, in the data set on DSS-treated mice (DSS 2% + compound 4), the “TNF-α content in the protein extract of the colon” value was “normalization” and the “mean length of the colon” value is 11.55 cm. In addition, the “Protection against LPS/GalN-induced shock” value in data set [4] is reported as “full protection”.
